Test results: paper PMC7575488, “Phase 1 dose-escalation study of a novel oral PI3K/mTOR dual inhibitor, LY3023414, in patients with cancer” (Investigational New Drugs, 2020)
Where two headings read alike, the source gives them in different places. Marks after values point to notes of the source that are not given here.

Key:
[1] = Phase 1 dose-escalation: tolerability and safety (DLTs, adverse events, CTCAE v4.0); format: in vivo
Description: This was a non-randomized, single-arm, open-label, Phase 1, dose-escalation study of oral LY3023414 in Japanese patients with advanced malignancies. A modified 3 + 3 dose-escalation method was used to evaluate the dose-limiting toxicity (DLT) of LY3023414. Enrollment of 3 patients and 6 patients were planned for dose level 1 (150 mg) and dose level 2 (200 mg), respectively. Dose-escalation decisions were made by agreement between investigators and the sponsor, with a consultation with the Safety Assessment Committee (SAC), as needed. If 2 patients experienced DLTs at any given dose, the sponsor examined safety data and consulted the SAC. Following consultation, the sponsor and investigators decided whether the dose was intolerable or additional patients were to be enrolled to the same or an intermediate dose level for further investigation. If ≥3 patients experienced DLTs at any given dose, the dose was considered intolerable for Japanese patients. No intrapatient dose escalation was allowed.
The study evaluated 2 dose levels, 150 mg or 200 mg LY3023414 monotherapy administered in the morning and evening, approximately 12 h apart. The cycle was of 21 days. […] No dose reductions were allowed during Cycle 1, unless a DLT was reported. Dose reductions were allowed in Cycle 2 and beyond at the discretion of the investigator. Patients were treated until a discontinuation criterion was met.
Tolerability and safety were assessed through clinical and laboratory evaluations at weekly intervals for the first 2 cycles and at least every 2 weeks thereafter. Adverse events (AEs) were graded according to the Common Terminology Criteria for Adverse Events Version 4.0 and coded to Medical Dictionary for Regulatory Activities preferred terms. All patients who received ≥1 dose of the study drug were included in the safety analysis.
A DLT was defined as any AE during Cycle 1 which was possibly related to study treatment with LY3023414 and fulfilled any of the following main criteria: Grade ≥ 3 non-hematological toxicity (except nausea, vomiting, diarrhea, constipation, anorexia, skin rash, or asymptomatic electrolyte abnormality for ≤3 days and responsive to appropriate treatment; transient ≤5 days hyperglycemia; and transient ≤7 days mucositis), Grade 4 hematological toxicity of ≥7 days, Grade 3 thrombocytopenia with Grade ≥ 2 bleeding or febrile neutropenia, requirement of platelet or packed red blood transfusion, and any toxicities requiring dose omissions of >20% of intended doses in Cycle 1. The maximum tolerated dose was defined as the highest dose of LY3023414 not causing a DLT in more than 33% of patients.

[2] = Blood pharmacokinetics (dried blood spot LC-MS/MS, non-compartmental analysis); format: in vivo, human; conditions: for CL/F: based on AUC0-∞; for CL/F (CLss/F): Cycle 1 Day 15 (multiple dose, steady state); for Tmax / half-life / Vd/F / AUC(0-inf) / Cmax / AUC(0-t): human, oral; for Vd/F: read-out: Vz/F; for AUC(0-t): tlast 12 h (AUCτ), read-out: AUC0-tlast
Description: For PK assessment, blood samples were collected at pre dose and 0.5, 1, 2, 4, 8, and 12 h post dose on 2 occasions: (i) on Day 1 of Cycle 1 (single dose), and (ii) on Day 15 of Cycle 1 (multiple dose). For PD assessment, blood samples were collected at pre dose and 0.5, 1, 2, and 4 h post dose on 2 occasions: (i) on Day 1 of Cycle 1 (single dose), and (ii) on Day 15 of Cycle 1 (multiple dose).
Blood concentrations of LY3023414 were assayed using a validated dried blood spot liquid chromatography-mass spectrometry/mass spectrometry method at a designated laboratory. The PK parameter estimates for LY3023414 were calculated by standard non-compartmental methods of analysis using Phoenix WinNonlin® 8.0 (Certara, L.P.; Princeton, NJ, USA). The primary parameters for analysis were maximum observed blood concentration (Cmax), time of Cmax (tmax), area under the blood concentration-time curve from time zero to the last measurable blood concentration (AUC0-tlast), and area under the blood concentration-time curve from time zero to infinity (AUC0-∞) of LY3023414. Other non-compartmental parameters, such as half-life (t1/2), apparent total body clearance (CL/F) on Cycle 1 Day 1, apparent total body clearance at steady state (CLss/F) on Cycle 1 Day 15, and apparent volume of distribution during the terminal phase (Vz/F), were also assessed.

[3] = test system: PI3K/AKT/mTOR downstream pathway; parameters: method as in PMID 27439478; conditions: in vitro; cited from earlier work
tumor xenograft models = conditions: cited from earlier work
[4] = whole blood, 150 mg, 150 mg BID, Cycle 1 Day 1 (single dose), blood, N = 3, geometric mean (% CV)
[5] = whole blood, 150 mg, 150 mg BID, Cycle 1 Day 15 (multiple dose), blood, N = 3, geometric mean (% CV)
[6] = whole blood, 200 mg, 200 mg BID, Cycle 1 Day 1 (single dose), blood, N = 9, geometric mean (% CV)
[7] = whole blood, 200 mg, 200 mg BID, Cycle 1 Day 15 (multiple dose), blood, N = 7, geometric mean (% CV)

CO[C@@H](C)Cn1c(=O)n(C)c2cnc3ccc(-c4cncc(C(C)(C)O)c4)cc3c21 [LY3023414]
Maximum tolerated dose ([1]; BID dosing, Japanese patients): 200 mg
Fatal events ([1]; due to AEs or any other reason): no fatal events
ALT increased, AE possibly related to study drug ([1]; human, in vivo): 3 (25.0) n (%)
AST increased, AE possibly related to study drug ([1]; human, in vivo): 3 (25.0) n (%)
Anemia, AE possibly related to study drug ([1]; human, in vivo): 5 (41.7) n (%)
Appetite decreased, AE possibly related to study drug ([1]; human, in vivo): 7 (58.3) n (%)
Blood creatinine increased, AE possibly related to study drug ([1]; human, in vivo): 4 (33.3) n (%)
Diarrhea, AE possibly related to study drug ([1]; human, in vivo): 5 (41.7) n (%)
Drug-related Grade 4 or 5 AEs ([1]; human, in vivo): No drug-related Grade 4 or 5 AEs
Fatigue, AE possibly related to study drug ([1]; human, in vivo): 4 (33.3) n (%)
Hyperglycemia, AE possibly related to study drug ([1]; human, in vivo): 4 (33.3) n (%)
Hypokalemia, AE possibly related to study drug ([1]; human, in vivo): 2 (16.7) n (%)
Hypophosphatemia, AE possibly related to study drug ([1]; human, in vivo): 4 (33.3) n (%)
Hypotension, AE possibly related to study drug ([1]; human, in vivo): 2 (16.7) n (%)
Nausea, AE possibly related to study drug ([1]; human, in vivo): 8 (66.7) n (%)
Patients with at least 1 dose adjustment ([1]; human, in vivo): 33.3%
Patients with serious AEs ([1]; human, in vivo): 3 patients
Platelet count decreased, hematological AE possibly related to study drug ([1]; human, in vivo): 5 (41.7) n (%)
Proteinuria, AE possibly related to study drug ([1]; human, in vivo): 4 (33.3) n (%)
Pruritis, AE possibly related to study drug ([1]; human, in vivo): 3 (25.0) n (%)
Pyrexia, AE possibly related to study drug ([1]; human, in vivo): 2 (16.7) n (%)
Rash, AE possibly related to study drug ([1]; human, in vivo): 3 (25.0) n (%)
Stomatitis, AE possibly related to study drug ([1]; human, in vivo): 9 (75.0) n (%)
Vomiting, AE possibly related to study drug ([1]; human, in vivo): 4 (33.3) n (%)
WBC count decreased, hematological AE possibly related to study drug ([1]; human, in vivo): 2 (16.7) n (%)
Weight decreased, AE possibly related to study drug ([1]; human, in vivo): 2 (16.7) n (%)
anemia, related AE Grade ≥ 3, patients ([1]; human, in vivo): 16.7%
anemia, treatment-related AE, patients ([1]; human, in vivo): 41.7%
decreased appetite, treatment-related AE, patients ([1]; human, in vivo): 58.3%
decreased platelet count, treatment-related AE, patients ([1]; human, in vivo): 41.7%
decreased weight, treatment-related AE, patients ([1]; human, in vivo): 16.7%
decreased white blood cell count, treatment-related AE, patients ([1]; human, in vivo): 16.7%
diarrhea, treatment-related AE, patients ([1]; human, in vivo): 41.7%
fatigue, treatment-related AE, patients ([1]; human, in vivo): 33.3%
hyperglycemia, related AE Grade ≥ 3, patients ([1]; human, in vivo): 16.7%
hyperglycemia, treatment-related AE, patients ([1]; human, in vivo): 33.3%
hypokalemia, treatment-related AE, patients ([1]; human, in vivo): 16.7%
hypophosphatemia, related AE Grade ≥ 3, patients ([1]; human, in vivo): 16.7%
hypophosphatemia, treatment-related AE, patients ([1]; human, in vivo): 33.3%
hypotension, treatment-related AE, patients ([1]; human, in vivo): 16.7%
increased alanine aminotransferase, treatment-related AE, patients ([1]; human, in vivo): 25.0%
increased aspartate aminotransferase, treatment-related AE, patients ([1]; human, in vivo): 25.0%
increased blood creatinine, treatment-related AE, patients ([1]; human, in vivo): 33.3%
nausea, treatment-related AE, patients ([1]; human, in vivo): 66.7%
proteinuria, treatment-related AE, patients ([1]; human, in vivo): 33.3%
pruritus, treatment-related AE, patients ([1]; human, in vivo): 25.0%
pyrexia, treatment-related AE, patients ([1]; human, in vivo): 16.7%
rash, treatment-related AE, patients ([1]; human, in vivo): 25.0%
stomatitis, related AE Grade ≥ 3, patients ([1]; human, in vivo): 16.7%
stomatitis, treatment-related AE, patients ([1]; human, in vivo): 75.0%
vomiting, treatment-related AE, patients ([1]; human, in vivo): 33.3%
Dose-limiting toxicities (DLTs) ([1]; in vivo): No DLTs
Patients with at least 1 AE considered possibly related to the study drug ([1]; in vivo): All patients
CL/F ([2]; 150 mg BID, Cycle 1 Day 1 (single dose), N = 3, geometric mean (% CV)): 49.2 (19) L/hr
CL/F (CLss/F) ([2]; 150 mg BID, N = 3, geometric mean (% CV)): 30.4 (45) L/hr
CL/F ([2]; 200 mg BID, Cycle 1 Day 1 (single dose), N = 8, geometric mean (% CV 29)): 48.5^c (29) L/hr
CL/F (CLss/F) ([2]; 200 mg BID, N = 7, geometric mean (% CV)): 48.6 (33) L/hr
Tmax ([2]; whole blood (dried blood spot), 200 mg, post administration, each dose level (150 and 200 mg), read-out: median tmax): 1 to 3 h
half-life ([2]; whole blood (dried blood spot), Days 1 and 15 in Cycle 1, each dose level, read-out: geometric mean t1/2 (converted)): ~2 h
Vd/F ([2]; whole blood, 150 mg, 150 mg BID, Cycle 1 Day 1 (single dose), N = 3, geometric mean (% CV)): 113 L
AUC(0-inf) [2, 4]: 3050 ng·h/mL
Cmax [2, 4]: 792 ng/mL
half-life ([2]; whole blood, 150 mg, 150 mg BID, Cycle 1 Day 1 (single dose), blood, N = 3, geometric mean (range), read-out: t1/2 (converted)): 1.59 h
Tmax ([2]; whole blood, 150 mg, 150 mg BID, Cycle 1 Day 1 (single dose), blood, N = 3, median (range), read-out: tmax): 2.93 h
AUC(0-t) [2, 4]: 3000 ng·h/mL
Vd/F ([2]; whole blood, 150 mg, 150 mg BID, Cycle 1 Day 15 (multiple dose), N = 3, geometric mean (% CV)): 79.3 L
AUC(0-inf) [2, 5]: 5010 ng·h/mL
Cmax [2, 5]: 1570 ng/mL
half-life ([2]; whole blood, 150 mg, 150 mg BID, Cycle 1 Day 15 (multiple dose), blood, N = 3, geometric mean (range), read-out: t1/2 (converted)): 1.81 h
Tmax ([2]; whole blood, 150 mg, 150 mg BID, Cycle 1 Day 15 (multiple dose), blood, N = 3, median (range), read-out: tmax): 1 h
AUC(0-t) [2, 5]: 4920 ng·h/mL
Vd/F ([2]; whole blood, 200 mg, 200 mg BID, Cycle 1 Day 1 (single dose), N = 8, geometric mean (% CV 35)): 136 L
AUC(0-inf) ([2]; whole blood, 200 mg, 200 mg BID, Cycle 1 Day 1 (single dose), blood, N = 8, geometric mean (% CV 29)): 4120 ng·h/mL
half-life ([2]; whole blood, 200 mg, 200 mg BID, Cycle 1 Day 1 (single dose), blood, N = 8, geometric mean (range 1.52–3.15), read-out: t1/2 (converted)): 1.94 h
Cmax [2, 6]: 1020 ng/mL
Tmax ([2]; whole blood, 200 mg, 200 mg BID, Cycle 1 Day 1 (single dose), blood, N = 9, median (range), read-out: tmax): 1.95 h
AUC(0-t) [2, 6]: 4140 ng·h/mL
Vd/F ([2]; whole blood, 200 mg, 200 mg BID, Cycle 1 Day 15 (multiple dose), N = 7, geometric mean (% CV)): 129 L
AUC(0-inf) [2, 7]: 4210 ng·h/mL
Cmax [2, 7]: 1010 ng/mL
half-life ([2]; whole blood, 200 mg, 200 mg BID, Cycle 1 Day 15 (multiple dose), blood, N = 7, geometric mean (range), read-out: t1/2 (converted)): 1.83 h
Tmax ([2]; whole blood, 200 mg, 200 mg BID, Cycle 1 Day 15 (multiple dose), blood, N = 7, median (range), read-out: tmax): 1.97 h
AUC(0-t) [2, 7]: 4100 ng·h/mL
Inhibition of phosphorylation of the PI3K/AKT/mTOR downstream pathway [3]: dose-dependent inhibition
Antitumor activity (tumor xenograft models): potent antitumor activity
